{
  "source": "patent US10758534B2",
  "about": "(Vertex Pharmaceuticals Incorporated, priority 2014, dated 2020)",
  "data": [
    {"target": "T1, F508del (Homo sapiens, UniProt P13569, DEL508-508)", "T1 construct": "expressed in transfected cells", "T1 sequence (P13569 with tags, fused parts or gaps DEL508-508)": "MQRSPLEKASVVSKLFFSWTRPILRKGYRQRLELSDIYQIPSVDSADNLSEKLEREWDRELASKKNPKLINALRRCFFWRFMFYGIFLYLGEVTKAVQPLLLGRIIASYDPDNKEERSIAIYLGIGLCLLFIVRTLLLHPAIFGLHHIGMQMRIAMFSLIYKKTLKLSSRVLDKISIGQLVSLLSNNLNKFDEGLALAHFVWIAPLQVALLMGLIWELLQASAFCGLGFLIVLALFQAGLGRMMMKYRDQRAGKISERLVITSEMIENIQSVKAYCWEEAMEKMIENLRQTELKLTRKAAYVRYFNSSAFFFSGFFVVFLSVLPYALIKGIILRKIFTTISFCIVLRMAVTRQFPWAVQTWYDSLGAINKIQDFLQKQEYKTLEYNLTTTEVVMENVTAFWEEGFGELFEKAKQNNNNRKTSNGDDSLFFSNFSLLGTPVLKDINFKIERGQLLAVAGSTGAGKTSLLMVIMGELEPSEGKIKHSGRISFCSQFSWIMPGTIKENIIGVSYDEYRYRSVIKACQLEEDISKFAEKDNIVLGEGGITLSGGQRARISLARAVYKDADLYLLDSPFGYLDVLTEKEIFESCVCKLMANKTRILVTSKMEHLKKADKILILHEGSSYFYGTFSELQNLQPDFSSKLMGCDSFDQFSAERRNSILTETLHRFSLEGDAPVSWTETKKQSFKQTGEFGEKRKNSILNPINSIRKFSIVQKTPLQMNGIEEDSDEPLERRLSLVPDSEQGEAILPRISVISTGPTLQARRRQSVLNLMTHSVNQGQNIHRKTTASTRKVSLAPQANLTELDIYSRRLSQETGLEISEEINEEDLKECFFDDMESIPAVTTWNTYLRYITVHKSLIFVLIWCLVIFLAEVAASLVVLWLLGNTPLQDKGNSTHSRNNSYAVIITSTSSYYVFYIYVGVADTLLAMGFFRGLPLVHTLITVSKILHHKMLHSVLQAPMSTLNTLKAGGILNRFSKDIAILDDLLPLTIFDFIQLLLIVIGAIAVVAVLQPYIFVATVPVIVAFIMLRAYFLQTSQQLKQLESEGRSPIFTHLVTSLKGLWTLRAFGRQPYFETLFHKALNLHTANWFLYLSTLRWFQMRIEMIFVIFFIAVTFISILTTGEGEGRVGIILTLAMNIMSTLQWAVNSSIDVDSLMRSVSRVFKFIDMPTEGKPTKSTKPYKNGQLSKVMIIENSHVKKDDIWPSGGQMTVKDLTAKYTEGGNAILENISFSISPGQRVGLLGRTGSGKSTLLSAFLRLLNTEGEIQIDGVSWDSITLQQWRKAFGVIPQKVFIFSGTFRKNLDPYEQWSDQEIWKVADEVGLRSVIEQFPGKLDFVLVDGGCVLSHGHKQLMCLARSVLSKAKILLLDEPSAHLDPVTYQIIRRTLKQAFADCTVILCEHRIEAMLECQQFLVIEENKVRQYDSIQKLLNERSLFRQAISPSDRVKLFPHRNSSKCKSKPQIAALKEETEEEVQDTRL", "experiment": "Protocol 2: FRET membrane potential optical assay (VIPR), identification of correction compounds", "format": "cell-based", "settings": "F508del CFTR modulator activity; compounds of Table 1; read-out: EC30", "description": "(§1) Membrane potential optical methods for assaying F508del modulation properties of compounds.\n(§2) These voltage sensitive assays are based on the change in fluorescence resonant energy transfer (FRET) between the membrane-soluble, voltage-sensitive dye, DiSBAC2(3), and a fluorescent phospholipid, CC2-DMPE, which is attached to the outer leaflet of the plasma membrane and acts as a FRET donor. Changes in membrane potential (Vm) cause the negatively charged DiSBAC2(3) to redistribute across the plasma membrane and the amount of energy transfer from CC2-DMPE changes accordingly. The changes in fluorescence emission were monitored using VIPR™ II, which is an integrated liquid handler and fluorescent detector designed to conduct cell-based screens in 96- or 384-well microtiter plates.\n(§3) To identify small molecules that correct the trafficking defect associated with F508del; a single-addition HTS assay format was developed. The cells were incubated in serum-free medium for 16 hrs at 37° C. in the presence or absence (negative control) of test compound. As a positive control, cells plated in 384-well plates were incubated for 16 hrs at 27° C. to “temperature-correct” F508del. The cells were subsequently rinsed 3× with Krebs Ringers solution and loaded with the voltage-sensitive dyes. To activate F508del, 10 μM forskolin and the CFTR potentiator, genistein (20 μM), were added along with Cl^−-free medium to each well. The addition of Cl^−-free medium promoted Cl^− efflux in response to F508del activation and the resulting membrane depolarization was optically monitored using the FRET-based voltage-sensor dyes.\n(§4) • Bath Solution #1: (in mM) NaCl 160, KCl 4.5, CaCl2 2, MgCl2 1, HEPES 10, pH 7.4 with NaOH. • Chloride-free bath solution: Chloride salts in Bath Solution #1 (above) are substituted with gluconate salts. • CC2-DMPE: Prepared as a 10 mM stock solution in DMSO and stored at −20° C. • DiSBAC2(3): Prepared as a 10 mM stock in DMSO and stored at −20° C. Cell Culture\n(§5) NIH3T3 mouse fibroblasts stably expressing F508del are used for optical measurements of membrane potential. The cells are maintained at 37° C. in 5% CO2 and 90% humidity in Dulbecco's modified Eagle's medium supplemented with 2 mM glutamine, 10% fetal bovine serum, 1×NEAA, β-ME, 1× pen/strep, and 25 mM HEPES in 175 cm^2 culture flasks. For all optical assays, the cells were seeded at 30,000/well in 384-well matrigel-coated plates and cultured for 2 hrs at 37° C. before culturing at 27° C. for 24 hrs for the potentiator assay. For the correction assays, the cells are cultured at 27° C. or 37° C. with and without compounds for 16-24 hours.", "units": {"EC30": "nM"}, "values": [
      {"smiles": "COc1cccc(Oc2cccc(S(=O)(=O)NC(=O)c3cccnc3N3CC(C)CC3(C)C)n2)c1", "note": "(stereo not shown) [Compound 2551, N—[[6-(3-methoxyphenoxy)-2-pyridyl]sulfonyl]-2-(2,2,4-trimethylpyrrolidin-1-yl)pyridine-3-carboxamide]", "EC30": "< 3000"},
      {"smiles": "COc1c(F)cc(F)cc1-c1ccc(C(=O)NS(=O)(=O)c2ccc[nH]c2=O)c(N2C[C@@H](C)CC2(C)C)n1", "note": "[Compound 2496, 6-(3,5-difluoro-2-methoxy-phenyl)-N-[(2-oxo-1H-pyridin-3-yl)sulfonyl]-2-[(4S)-2,2,4-trimethylpyrrolidin-1-yl]pyridine-3-carboxamide]", "EC30": "< 3000"},
      {"smiles": "Cc1ccc(-c2ccc(C(=O)NS(=O)(=O)c3cccnc3N)c(N3C[C@@H](C)CC3(C)C)n2)c2ccccc12", "note": "[Compound 2126, N-[(2-amino-3-pyridyl)sulfonyl]-6-(4-methyl-1-naphthyl)-2-[(4S)-2,2,4-trimethylpyrrolidin-1-yl]pyridine-3-carboxamide]", "EC30": "< 3000"},
      {"smiles": "CC(C)COc1cc(F)cc(-c2ccc(C(=O)NS(=O)(=O)c3cccc(N)n3)c(N3CC(C)CCC3C)n2)c1", "note": "(single isomer, unassigned) [Compound 2451, N-[(6-amino-2-pyridyl)sulfonyl]-2-(2,5-dimethyl-1-piperidyl)-6-(3-fluoro-5-isobutoxy-phenyl)pyridine-3-carboxamide]", "EC30": "< 3000"},
      {"smiles": "CC(C)COc1cc(F)cc(-c2ccc(C(=O)NS(=O)(=O)c3cccc(N)n3)c(NCC3CCCCC3)n2)c1", "note": "[Compound 2375, N-[(6-amino-2-pyridyl)sulfonyl]-2-(cyclohexylmethylamino)-6-(3-fluoro-5-isobutoxy-phenyl)pyridine-3-carboxamide]", "EC30": "3000 to 10000"},
      {"smiles": "CC1CN(c2ncc(-c3ccccc3Cl)cc2C(=O)NS(=O)(=O)c2cccc(N)n2)C(C)(C)C1", "note": "(stereo not shown) [Compound 2312, N-[(6-amino-2-pyridyl)sulfonyl]-5-(2-chlorophenyl)-2-(2,2,4-trimethylpyrrolidin-1-yl)pyridine-3-carboxamide]", "EC30": "< 3000"},
      {"smiles": "CCOc1ccc(-c2ccc(C(=O)NS(=O)(=O)c3cccnc3N)c(N3C[C@@H](C)CC3(C)C)n2)cc1F", "note": "[Compound 2403, N-[(2-amino-3-pyridyl)sulfonyl]-6-(4-ethoxy-3-fluoro-phenyl)-2-[(4S)-2,2,4-trimethylpyrrolidin-1-yl]pyridine-3-carboxamide]", "EC30": "< 3000"},
      {"smiles": "CC1CC=C(c2cnc(N3CC(C)CC3(C)C)c(C(=O)NS(=O)(=O)c3cccc(N)n3)c2)CC1", "note": "(stereo not shown) [Compound 2361, N-[(6-amino-2-pyridyl)sulfonyl]-5-(4-methylcyclohexen-1-yl)-2-(2,2,4-trimethylpyrrolidin-1-yl)pyridine-3-carboxamide]", "EC30": "< 3000"},
      {"smiles": "CC1CN(c2ncccc2C(=O)NS(=O)(=O)c2cccc(Oc3cccc4cccnc34)n2)C(C)(C)C1", "note": "(stereo not shown) [Compound 2333, N—[[6-(8-quinolyloxy)-2-pyridyl]sulfonyl]-2-(2,2,4-trimethylpyrrolidin-1-yl)pyridine-3-carboxamide]", "EC30": "3000 to 10000"},
      {"smiles": "CC(C)c1ccc(-c2ccc(C(=O)NS(=O)(=O)c3cccnc3N)c(N3C[C@@H](C)CC3(C)C)n2)cc1", "note": "[Compound 2368, N-[(2-amino-3-pyridyl)sulfonyl]-6-(4-isopropylphenyl)-2-[(4S)-2,2,4-trimethylpyrrolidin-1-yl]pyridine-3-carboxamide]", "EC30": "< 3000"},
      {"smiles": "CC(C)(C)c1ccc(C(=O)NS(=O)(=O)c2cccc(N)n2)c(N2CCC(C3CC3)C2(C)C)n1", "note": "(single isomer, unassigned) [Compound 2022, N-[(6-amino-2-pyridyl)sulfonyl]-6-tert-butyl-2-(3-cyclopropyl-2,2-dimethyl-pyrrolidin-1-yl)pyridine-3-carboxamide]", "EC30": "< 3000"},
      {"smiles": "CC1CN(c2ncccc2C(=O)NS(=O)(=O)c2cccc(Nc3cccc4cnccc34)n2)C(C)(C)C1", "note": "(stereo not shown) [Compound 2274, N—[[6-(5-isoquinolylamino)-2-pyridyl]sulfonyl]-2-(2,2,4-trimethylpyrrolidin-1-yl)pyridine-3-carboxamide]", "EC30": "3000 to 10000"},
      {"smiles": "CC1CN(c2ncccc2C(=O)NS(=O)(=O)c2cccc(Oc3cc(Cl)cc(Cl)c3)n2)C(C)(C)C1", "note": "(stereo not shown) [Compound 2663, N—[[6-(3,5-dichlorophenoxy)-2-pyridyl]sulfonyl]-2-(2,2,4-trimethylpyrrolidin-1-yl)pyridine-3-carboxamide]", "EC30": "< 3000"}
    ]},
    {"target": "T1, F508del", "experiment": "Protocol 2: FRET membrane potential optical assay (VIPR), identification of correction compounds", "format": "cell-based", "settings": "Table 3; compounds of Table 1 as modulators of CFTR activity; protocol not stated", "description": "as §1, §2, §3, §4, §5", "values": [
      {"smiles": "CC(C)Oc1ccc(-c2ccc(C(=O)NS(=O)(=O)c3cccc(N)n3)c(N3CC[C@H](C)[C@H]3C)n2)cn1", "note": "[Compound 764, N-[(6-amino-2-pyridyl)sulfonyl]-2-[(2R,3S)-2,3-dimethylpyrrolidin-1-yl]-6-(6-isopropoxy-3-pyridyl)pyridine-3-carboxamide]", "EC30": "+++ (“+++” means <3 uM)"},
      {"smiles": "Cc1cc(C)c(Oc2nc(-c3cccc(OCC(C)C)c3)ccc2C(=O)NS(=O)(=O)c2ccc[nH]c2=O)c(C)c1", "note": "[Compound 125, 6-(3-isobutoxyphenyl)-N-[(2-oxo-1H-pyridin-3-yl)sulfonyl]-2-(2,4,6-trimethylphenoxy)pyridine-3-carboxamide]", "EC30": "++ (“++” means between 3 uM and 10 uM)"},
      {"smiles": "CCC1CCN(c2nc(-c3cc(F)cc(OCC(C)C)c3)ccc2C(=O)NS(=O)(=O)c2cccc(N)n2)CC1", "note": "[Compound 615, N-[(6-amino-2-pyridyl)sulfonyl]-2-(4-ethyl-1-piperidyl)-6-(3-fluoro-5-isobutoxy-phenyl)pyridine-3-carboxamide]", "EC30": "+++ (“+++” means <3 uM)"},
      {"smiles": "CC(=O)c1cccc(S(=O)(=O)NC(=O)c2cc(C(C)(C)C)nn2Cc2c(C)cc(C)cc2C)c1", "note": "[Compound 332, N-(3-acetylphenyl)sulfonyl-5-tert-butyl-2-[(2,4,6-trimethylphenyl)methyl]pyrazole-3-carboxamide]", "EC30": "+++ (“+++” means <3 uM)"},
      {"smiles": "Cc1cc(C)c(Oc2nc(C(C)(C)C)ccc2C(=O)NS(=O)(=O)c2cn[nH]c2)c(C)c1", "note": "[Compound 401, 6-tert-butyl-N-(1H-pyrazol-4-ylsulfonyl)-2-(2,4,6-trimethylphenoxy)pyridine-3-carboxamide]", "EC30": "+++ (“+++” means <3 uM)"},
      {"smiles": "Cc1cc(C)c(Oc2nc(-c3cnc(C(C)C)nc3)ccc2C(=O)NS(=O)(=O)c2cccc(N)n2)c(C)c1", "note": "[Compound 64, N-[(6-amino-2-pyridyl)sulfonyl]-6-(2-isopropylpyrimidin-5-yl)-2-(2,4,6-trimethylphenoxy)pyridine-3-carboxamide]", "EC30": "++ (“++” means between 3 uM and 10 uM)"},
      {"smiles": "CCOc1cccc2c1CN(Cc1c(C)cc(C)cc1C)C2(C)C(=O)NS(=O)(=O)c1ccc[nH]c1=O", "note": "(stereo not shown) [Compound 410, 4-ethoxy-1-methyl-N-[(2-oxo-1H-pyridin-3-yl)sulfonyl]-2-[(2,4,6-trimethylphenyl)methyl]isoindoline-1-carboxamide]", "EC30": "+++ (“+++” means <3 uM)"},
      {"smiles": "CCOc1cccc2c1CN(Cc1c(C)cc(C)cc1C)C2(C)C(=O)NS(=O)(=O)c1cccnc1OC", "note": "(stereo not shown) [Compound 648, 4-ethoxy-N-[(2-methoxy-3-pyridyl)sulfonyl]-1-methyl-2-[(2,4,6-trimethylphenyl)methyl]isoindoline-1-carboxamide]", "EC30": "+++ (“+++” means <3 uM)"},
      {"smiles": "Cc1cc(C)c(Oc2nc(-c3cccnc3OCC(F)(F)F)ccc2C(=O)NS(=O)(=O)c2cccc(N)n2)c(C)c1", "note": "[Compound 697, N-[(6-amino-2-pyridyl)sulfonyl]-6-[2-(2,2,2-trifluoroethoxy)-3-pyridyl]-2-(2,4,6-trimethylphenoxy)pyridine-3-carboxamide]", "EC30": "+++ (“+++” means <3 uM)"},
      {"smiles": "CC(C)COc1cc(F)cc(-c2ccc(C(=O)NS(=O)(=O)c3ccn[nH]3)c(N3CCCCCC3)n2)c1", "note": "[Compound 734, 2-(azepan-1-yl)-6-(3-fluoro-5-isobutoxy-phenyl)-N-(1H-pyrazol-5-ylsulfonyl)pyridine-3-carboxamide]", "EC30": "+++ (“+++” means <3 uM)"},
      {"smiles": "Cc1cc(C)c(Oc2nc(-c3ccc(OC(C)C)cc3)ccc2C(=O)NS(=O)(=O)c2cccc(N)n2)c(C)c1", "note": "[Compound 436, N-[(6-amino-2-pyridyl)sulfonyl]-6-(4-isopropoxyphenyl)-2-(2,4,6-trimethylphenoxy)pyridine-3-carboxamide]", "EC30": "+++ (“+++” means <3 uM)"},
      {"smiles": "CC(C)Oc1ccc(-c2ccc(C(=O)NS(=O)(=O)c3cccc(N)n3)c(N3CCC4(CCO4)CC3)n2)cn1", "note": "[Compound 729, N-[(6-amino-2-pyridyl)sulfonyl]-6-(6-isopropoxy-3-pyridyl)-2-(3-oxa-7-azaspiro[3.5]nonan-7-yl)pyridine-3-carboxamide]", "EC30": "++ (“++” means between 3 uM and 10 uM)"}
    ]}
  ]
}
